Experiment [1] has as its system P. aeruginosa (2943 strain). The experiment can be described thus: Mature biofilms, crystal violet staining. It counts as cell-based, Pseudomonas aeruginosa. Also noted: key: ↓: Decrease in the parameter (optical density) compared to the negative control; −: No decrease in the parameter; ↑: Reverse effect (increase in the optical density compared to the control). The settings on record: mature biofilm: peptide added after 24 h, further 24 h; 0.01-10 mg/mL. As to the method: (§1) After 24 h of incubation, the medium was removed. To assess the total biofilm biomass, the wells were rinsed with sterile PBS solution and stained with 0.1% crystal violet. The dye bound to the surface was then removed using 95% ethanol. To assess the presence of metabolically active cells, 0.3% MTT (PanEco Ltd., Moscow, Russia) solution was added to each well, and the plates were incubated at 37 °C for 2 h. After incubation, the MTT solution was removed, 150 µL of DMSO (Chimmed, Moscow, Russia) and 25 µL of glycine buffer were added to each well, and the plates were left at room temperature for 15 min. The resulting solutions were transferred to a flat-bottom 96-well plate, and optical density was measured at 595 nm.
(§2) A stationary-phase culture of the tested strain was diluted 100-fold in fresh medium (200 µL per well) and added to the wells of a 96-well round-bottom plate. […] After another 24 h, the medium was removed and the wells were rinsed with sterile PBS to eliminate planktonic cells. The procedures for assessing total biofilm biomass and cell metabolic activity using crystal violet and MTT assays were performed in the same manner as described above for early-stage biofilm experiments.

Experiment [2] has as its system MRSA (SA 180-F strain). The experiment can be described thus: Mature biofilms, crystal violet staining. It counts as cell-based, methicillin-resistant Staphylococcus aureus. Also noted: key: ↓: Decrease in the parameter (optical density) compared to the negative control; −: No decrease in the parameter; ↑: Reverse effect (increase in the optical density compared to the control). As to conditions: mature biofilm: peptide added after 24 h, further 24 h, 0.01-10 mg/mL. The procedure:
as §1, §2

Experiment [3] has as its system MRSA (SA 180-F strain). The experiment can be described thus: Antibacterial activity in liquid medium (optical density). It is filed as cell-based, methicillin-resistant Staphylococcus aureus. Also noted: key to change of optical density vs negative control: ↓: Decrease in the parameter (optical density) compared to the negative control; −: No decrease in the parameter; ↑: Reverse effect (increase in the optical density compared to the control). The settings on record: 24 h, 37 °C; for change of optical density vs negative control: OD 595 nm. As to the method: To evaluate the antibacterial activity of peptides in liquid culture, a stationary-phase culture of the tested bacterial strain was diluted 100-fold in fresh medium containing peptides or gentamicin (positive control) at the specified concentrations. A total volume of 200 µL was added to each well of a 96-well round-bottom microtiter plate. After 24 h of incubation at 37 °C, the samples were transferred to a flat-bottom 96-well microtiter plate, and the optical density was measured at 595 nm. Separately, the optical density of medium containing peptides but no bacteria was measured. These values were used as baseline (zero) readings for subsequent data analysis.

Experiment [4] deals with E. coli (MG1655 strain). The experiment is described as follows: Early biofilm formation, MTT assay. It counts as cell-based, Escherichia coli. Also noted: key: ↓: Decrease in the parameter (optical density) compared to the negative control; −: No decrease in the parameter; ↑: Reverse effect (increase in the optical density compared to the control). As to conditions: 24 h, 0.3% MTT 2 h 37 °C, OD 595 nm. As to the method:
as §1

Experiment [5] concerns E. coli (MG1655 strain). The experiment is described as follows: Mature biofilms, crystal violet staining. As to conditions: mature biofilm: peptide added after 24 h, further 24 h; 0.01-10 mg/mL. It is filed as cell-based, Escherichia coli. Also noted: key: ↓: Decrease in the parameter (optical density) compared to the negative control; −: No decrease in the parameter; ↑: Reverse effect (increase in the optical density compared to the control). As to the method:
as §1, §2

The next experiment deals with S. aureus (129B strain). The experiment can be described thus: Antibacterial activity on 0.7% agar (inhibition zone). Further details: key: +: The presence of a bacterial growth inhibition zone; −: The absence of a bacterial growth inhibition zone. It is filed as cell-based, Staphylococcus aureus. As to conditions: drop on 0.7% agar, 24 h. As to the method: (§3) Drops of the samples were applied to the surface of solidified 0.7% agar at the concentrations indicated in Table 2 and Supplementary S2 (Figures S1–S4). After 24 h of incubation, the results were evaluated based on the presence or absence (+/−) of inhibition zones.
(§4) Once the agar solidified, drops of peptide samples at the concentrations 1, 0.1, 0.01, and 0.001 mg/mL were applied to the agar surface.

Experiment [6] has as its system P. aeruginosa (2943 strain). Described as above. It is filed as cell-based, Pseudomonas aeruginosa. Further details: key: +: The presence of a bacterial growth inhibition zone; −: The absence of a bacterial growth inhibition zone. As to conditions: drop on 0.7% agar, 24 h. As to the method:
as §3, §4

Experiment [7] has as its system E. coli (MG1655 strain). The experiment is described as follows: Antibacterial activity in liquid medium (optical density). It is filed as cell-based, Escherichia coli. The settings on record: 10 mg/mL.
The test system of experiment [8] is P. aeruginosa (2943 strain). The experiment is described as follows: Mature biofilms, crystal violet staining. As to conditions: mature biofilm: peptide added after 24 h, further 24 h, 0.01-10 mg/mL. It counts as cell-based, Pseudomonas aeruginosa. Further details: key: ↓: Decrease in the parameter (optical density) compared to the negative control; −: No decrease in the optical density; ↑: Reverse effect (increase in the optical density compared to the control). The procedure:
as §1, §2

For experiment [9], the system named is E. coli (MG1655 strain). The experiment can be described thus: Mature biofilms, MTT assay. It counts as cell-based, Escherichia coli. Also noted: key: ↓: Decrease in the parameter (optical density) compared to the negative control; −: No decrease in the parameter; ↑: Reverse effect (increase in the optical density compared to the control). As to conditions: mature biofilm: peptide added after 24 h, further 24 h, 0.01-10 mg/mL. The procedure:
as §1, §2

The test system of experiment [10] is E. coli (MG1655 strain). The experiment is described as follows: Early biofilm formation, MTT assay. Further details: key: ↓: Decrease in the parameter (optical density) compared to the negative control; −: No decrease in the optical density; ↑: Reverse effect (increase in the optical density compared to the control). The settings on record: 24 h, 0.3% MTT 2 h 37 °C, OD 595 nm. It is filed as cell-based, Escherichia coli. The procedure: as §1

Take “ITDFGIFIGLGGGGSRQIKIWFQNRRMKWKK [I31K^P]”: in experiment [1], the “change of optical density after crystal violet staining vs negative control” value is given as “↑”. In the experiment with MRSA (SA 180-F strain) [2], the “change of optical density after crystal violet staining vs negative control” value was “↑”. Besides, in the experiment on MRSA (SA 180-F strain) [3], the “concentration given with ↓ (decrease in optical density)” value came out at 1 mg/mL and the “change of optical density vs negative control” value is on record as “↓ (1 mg/mL)”. Further, the “change of optical density after MTT assay vs negative control” value with E. coli (MG1655 strain) [4] is on record as “↑”.
On to RKKRRQRRRGGGGITDFGIFIGL [R23L^P], for which the “change of optical density after crystal violet staining vs negative control” value (in experiment [1]; with E. coli (MG1655 strain) [5]) was “↑” throughout. In addition, the “bacterial growth inhibition zone” value in the experiment with S. aureus (129B strain) (0.001 mg/mL) is “−”; in the experiment on S. aureus (129B strain) (0.01 mg/mL), “−”; in the experiment with S. aureus (129B strain) (0.1 mg/mL) it was “−”; with S. aureus (129B strain) (1 mg/mL) it was “+”; in [6] (0.001 mg/mL), “−”; in experiment [6] (0.01 mg/mL), “−”. Moreover, the results for the “bacterial growth inhibition zone” value in [6] (0.1 mg/mL) and in experiment [6] (1 mg/mL) were “−” and “+”, respectively. In addition, in the experiment with E. coli (MG1655 strain) [7], the “antimicrobial activity relative to meropenem” value was “comparable to that of meropenem”. Besides, in the experiment with MRSA (SA 180-F strain) [3], the “concentration given with ↓ (decrease in optical density)” value was 0.1 mg/mL. Besides, in the experiment on MRSA (SA 180-F strain) [3], the “change of optical density vs negative control” value is given as “↓ (0.1 mg/mL)”. In the experiment with E. coli (MG1655 strain) [4], the “change of optical density after MTT assay vs negative control” value is reported as “↑”.
Regarding “RKKRRQRRRGGGGVTDFGVFVEI [R23I^T, TAT cell-penetrating peptide linked via glycine linker to amyloidogenic fragment of S1 ribosomal protein of T. thermophilus]”, the “bacterial growth inhibition zone” value with S. aureus (129B strain) (0.001 mg/mL) was “−”; in the experiment on S. aureus (129B strain) (0.01 mg/mL), “−”; with S. aureus (129B strain) (0.1 mg/mL) it was “−”; in the experiment with S. aureus (129B strain) (1 mg/mL), “+”; in [6] (0.001 mg/mL), “−”; in experiment [6] (0.01 mg/mL), “−”. For the same sequence, the figures for the “bacterial growth inhibition zone” value in [6] (0.1 mg/mL) and in [6] (1 mg/mL) were “−” and “+”, respectively. Moreover, the “change of optical density after crystal violet staining vs negative control” value in experiment [8] is “−”. In addition, the “concentration given with ↓ (decrease in optical density)” value in the experiment on MRSA (SA 180-F strain) [3] is listed as 1 mg/mL. In the experiment with MRSA (SA 180-F strain) [3], the “change of optical density vs negative control” value is given as “↓ (1 mg/mL)”. For the same sequence, the “change of optical density after MTT assay vs negative control” value in the experiment with E. coli (MG1655 strain) [4] and in the experiment on E. coli (MG1655 strain) [9] was “↑” each time.
As to “RKKRRQRRRGGGGVVVHINGGKFGGGGSRQIKIWFQNRRMKWKK [R44K^S]”, the “change of optical density after crystal violet staining vs negative control” value in experiment [1] is on record as “↑”; in the experiment with E. coli (MG1655 strain) [5], “↑”; in experiment [8] (listed as R44K^P), “−”; in the experiment on MRSA (SA 180-F strain) [2], “↑”. In addition, the “bacterial growth inhibition zone” value with S. aureus (129B strain) (0.001 mg/mL) is on record as “−”; with S. aureus (129B strain) (0.01 mg/mL), “−”; in the experiment with S. aureus (129B strain) (0.1 mg/mL), “−”; in the experiment on S. aureus (129B strain) (1 mg/mL), “+”; in [6] (0.001 mg/mL), “−”; in [6] (0.01 mg/mL) it was “−”. Besides, the “bacterial growth inhibition zone” value in experiment [6] (0.1 mg/mL) was “−”; in experiment [6] (1 mg/mL), “+”; in [6] (1 mg/mL, listed as R44K^P) it was “−”. The “antimicrobial activity relative to meropenem” value with E. coli (MG1655 strain) [7] is “comparable to that of meropenem”. For the same sequence, the “concentration given with ↓ (decrease in optical density)” value with MRSA (SA 180-F strain) [3] is 0.1 mg/mL. Moreover, in the experiment with MRSA (SA 180-F strain) [3], the “change of optical density vs negative control” value is “↓ (0.1 mg/mL)”. In addition, the “change of optical density after MTT assay vs negative control” value is “↑” with E. coli (MG1655 strain) [4] (listed as R44K^P), “−” in the experiment with E. coli (MG1655 strain) [10] and “↑” in the experiment with E. coli (MG1655 strain) [9].
As for “VTDFGVFVEIGGGGSRQIKIWFQNRRMKWKK [V31K^T, amyloidogenic fragment of S1 of T. thermophilus linked via glycine-rich linker to antennapedia peptide]”, the “change of optical density after crystal violet staining vs negative control” value (in experiment [1]; with E. coli (MG1655 strain) [5]; in the experiment with MRSA (SA 180-F strain) [2] (listed as V31K^S)) was “↑” each time. In addition, the “bacterial growth inhibition zone” value (with S. aureus (129B strain) (0.001 mg/mL); in the experiment on S. aureus (129B strain) (0.01 mg/mL); with S. aureus (129B strain) (0.1 mg/mL); in the experiment on S. aureus (129B strain) (1 mg/mL); in experiment [6] (0.001 mg/mL); in experiment [6] (0.01 mg/mL)) was “−” in each case. Moreover, the “bacterial growth inhibition zone” value in experiment [6] (0.1 mg/mL) and in experiment [6] (1 mg/mL) was “−” in each case. The “concentration given with ↓ (decrease in optical density)” value in the experiment on MRSA (SA 180-F strain) [3] is 1 mg/mL; in the experiment on MRSA (SA 180-F strain) [3] (listed as V31K^S), 0.1 mg/mL. Besides, the “change of optical density vs negative control” value with MRSA (SA 180-F strain) [3] is “↓ (1 mg/mL)”; with MRSA (SA 180-F strain) [3] (listed as V31K^S), “↓ (0.1 mg/mL)”. Also, the results for the “change of optical density after MTT assay vs negative control” value in the experiment with E. coli (MG1655 strain) [10] and with E. coli (MG1655 strain) [9] (listed as V31K^S) were “−” and “↑”, respectively.

Values taken from PMC12470154, “In Vitro Evaluation of Antimicrobial Amyloidogenic Peptides for the Treatment of Early and Mature Bacterial Biofilms” (International Journal of Molecular Sciences, 2025).
